Experimental data as given in patent US10294202B2, “Pyrrolidinones as herbicides” (FMC Corporation, priority 2013, dated 2019).

Tests used:
rice = assay: Test C flooded paddy test; assay type: in vivo, Oryza sativa; settings: Flood
Outline: (§1)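 Plants at the 2-leaf stage in pots flooded to 3 cm were treated by applying compound directly to the paddy water, with depth held throughout. After 13 to 15 days in a greenhouse, response was rated visually against controls on a 0 (no effect) to 100 (complete control) scale.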

barnyardgrass [1] = assay: Test A pre-/postemergence herbicide test; assay type: in vivo, Echinochloa crus-galli
Outline: (§2)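 Both application timings used compounds in a non-phytotoxic solvent plus surfactant. Pre-emergence: soil sprayed directly after seeding into loam/sand. Post-emergence: foliage of 2–10 cm seedlings (1–2 leaves) sprayed. Injury rated ~10 days later, 0–100.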

sedge, umbrella = assay: Test C flooded paddy test; assay type: in vivo, Cyperus difformis; settings: Flood
Outline: as §1

galium = assay: Test A postemergence herbicide test; assay type: in vivo, Galium aparine
Outline: (§3)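 Injury was rated visually about 10 days after treatment on a 0 (no effect) to 100 (complete control) scale, compared with untreated plants. Test chemicals were sprayed postemergence onto greenhouse plants 2–10 cm high at one to two leaves, grown in a loam–sand blend.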

pigweed = assay: Test A pre-/postemergence herbicide test; assay type: in vivo, Amaranthus retroflexus; settings: for Plant response rating, Pigweed: 0 to 100 scale
Outline: as §2

giant foxtail = assay: Test A pre-/postemergence herbicide test; assay type: in vivo, Setaria faberii; settings: for Plant response rating, Foxtail, Giant: 0 to 100 scale
Outline: as §2

corn = assay: Test A pre-/postemergence herbicide test; assay type: in vivo, Zea mays; settings: Postemergence
Outline: as §2

kochia = assay: Test A pre-/postemergence herbicide test; assay type: in vivo, Kochia scoparia; settings: for Plant response rating, Kochia: 0 to 100 scale
Outline: as §2

ryegrass, Italian = assay: Test A pre-/postemergence herbicide test; assay type: in vivo, Lolium multiflorum; settings: for Plant response rating, Ryegrass, Italian: 0 to 100 scale
Outline: as §2

ducksalad = assay: Test C flooded paddy test; assay type: in vivo, Heteranthera limosa; settings: Flood
Outline: as §1

wheat = assay: Test A pre-/postemergence herbicide test; assay type: in vivo, Triticum aestivum; settings: Postemergence
Outline: as §2

barnyardgrass [2] = assay: Test C flooded paddy test; assay type: in vivo, Echinochloa crus-galli; settings: Flood
Outline: as §1

ragweed = assay: Test A pre-/postemergence herbicide test; assay type: in vivo, Ambrosia elatior; settings: for Plant response rating, Ragweed: 0 to 100 scale
Outline: as §2

blackgrass = assay: Test A postemergence herbicide test; assay type: in vivo, Alopecurus myosuroides
Outline: as §3

[3] = 125 g ai/ha, scale of 0 to 100 where 0 is no effect and 100 is complete control, 13 to 15 days
[4] = Preemergence, 125 g ai/ha, visual rating on 0 to 100 scale (0 no effect, 100 complete control)
[5] = 125 g ai/ha, 0 to 100 scale, 0 no effect, 100 complete control
[6] = Postemergence, 125 g ai/ha, 0 no effect, 100 complete control
[7] = 500 g ai/ha, 0 to 100 scale (0 no effect, 100 complete control)

O=C1NCC(c2cccc(C(F)(F)F)c2)C1C(=O)Nc1nncs1 (racemic) [Compound 111]
Plant response rating, Rice (rice; [3]): 0
Plant response rating, Rice (rice; 250 g ai/ha, scale 0 to 100): 0
Plant response rating, Rice (rice; 500 g ai/ha, scale 0 to 100): 0
Plant response rating, Rice (rice; 1000 g ai/ha, scale 0 to 100): 0
Plant response rating, Barnyardgrass (barnyardgrass [1]; Postemergence, 125 g ai/ha, 0 to 100 scale, 0 no effect, 100 complete control): 0
Plant response rating, Barnyardgrass (barnyardgrass [1]; Postemergence, 500 g ai/ha, 0 to 100 scale (0 no effect, 100 complete control)): 0
Barnyardgrass plant response rating (barnyardgrass [1]; [4]): 0
Plant response rating, Barnyardgrass (barnyardgrass [1]; preemergence, 500 g ai/ha, 0 to 100 scale (0 no effect, 100 complete control)): 0
Plant response rating, Sedge, Umbrella (sedge, umbrella; [3]): 0
Plant response rating, Sedge, Umbrella (sedge, umbrella; 250 g ai/ha, scale 0 to 100): 0
Plant response rating, Sedge, Umbrella (sedge, umbrella; 500 g ai/ha, scale 0 to 100): 0
Plant response rating, Sedge, Umbrella (sedge, umbrella; 1000 g ai/ha, scale 0 to 100): 0
Plant response rating, Galium (galium; [5]): 0
Galium plant response rating (0 to 100 scale, 0 is no effect, 100 is complete control) (galium; 500 g ai/ha): 0
Plant response rating, Pigweed (pigweed; [6]): 0
Pigweed plant response rating (0 to 100 scale, 0 is no effect, 100 is complete control) (pigweed; Postemergence, 500 g ai/ha): 0
Pigweed plant response rating (pigweed; [4]): 0
Plant response rating, Pigweed (pigweed; preemergence, 500 g ai/ha): 0
Plant response rating, Foxtail, Giant (giant foxtail; [6]): 0
Foxtail, Giant plant response rating (0 to 100 scale, 0 is no effect, 100 is complete control) (giant foxtail; Postemergence, 500 g ai/ha): 0
Foxtail, Giant plant response rating (giant foxtail; [4]): 0
Plant response rating, Foxtail, Giant (giant foxtail; preemergence, 500 g ai/ha): 0
Plant response rating, Corn (corn; [5]): 0
Plant response rating, Corn (corn; [7]): 0
Plant response rating, Kochia (kochia; [6]): 0
Kochia plant response rating (0 to 100 scale, 0 is no effect, 100 is complete control) (kochia; Postemergence, 500 g ai/ha): 0
Kochia plant response rating (kochia; [4]): 0
Plant response rating, Kochia (kochia; preemergence, 500 g ai/ha): 0
Plant response rating, Ryegrass, Italian (ryegrass, Italian; [6]): 0
Ryegrass, Italian plant response rating (0 to 100 scale, 0 is no effect, 100 is complete control) (ryegrass, Italian; Postemergence, 500 g ai/ha): 0
Ryegrass, Italian plant response rating (ryegrass, Italian; [4]): 0
Plant response rating, Ryegrass, Italian (ryegrass, Italian; preemergence, 500 g ai/ha): 0
Plant response rating, Ducksalad (ducksalad; [3]): 0
Plant response rating, Ducksalad (ducksalad; 250 g ai/ha, scale 0 to 100): 0
Plant response rating, Ducksalad (ducksalad; 500 g ai/ha, scale 0 to 100): 30
Plant response rating, Ducksalad (ducksalad; 1000 g ai/ha, scale 0 to 100): 40
Plant response rating, Wheat (wheat; [5]): 0
Wheat plant response rating (0 to 100 scale, 0 is no effect, 100 is complete control) (wheat; 500 g ai/ha): 0
Plant response rating, Barnyardgrass (barnyardgrass [2]; [3]): 0
Plant response rating, Barnyardgrass (barnyardgrass [2]; 250 g ai/ha, scale 0 to 100): 0
Plant response rating, Barnyardgrass (barnyardgrass [2]; 500 g ai/ha, scale 0 to 100): 0
Plant response rating, Barnyardgrass (barnyardgrass [2]; 1000 g ai/ha, scale 0 to 100): 0
Plant response rating, Ragweed (ragweed; [6]): 0
Ragweed plant response rating (0 to 100 scale, 0 is no effect, 100 is complete control) (ragweed; Postemergence, 500 g ai/ha): 0
Ragweed plant response rating (ragweed; [4]): 0
Plant response rating, Ragweed (ragweed; preemergence, 500 g ai/ha): 0
Plant response rating, Blackgrass (blackgrass; [5]): 0
Plant response rating, Blackgrass (blackgrass; [7]): 0
